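96-well plates; 48 h exposure; 5 concentrations. Endpoints by linear interpolation between flanking doses. Not reached: highest tested concentration assigned. GI50 = concentration required for 50% inhibition of growth.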 Active and inactive are the calls of the source. No stated cut-off is given here; in the data, active = GI50 up to about 1.1 µM and inactive = higher.
Assays:
Test in all cases: NCI-60 cell line screen, 48 h
K562 = tested on: K562
SF-295 = tested on: SF-295
HOP-92 = tested on: HOP-92
786-0 = tested on: 786-0
OVCAR-5 = tested on: OVCAR-5
SK-MEL-28 = tested on: SK-MEL-28
SK-MEL-5 = tested on: SK-MEL-5
UO-31 = tested on: UO-31
SN12C = tested on: SN12C
OVCAR-4 = tested on: OVCAR-4
OVCAR-3 = tested on: OVCAR-3
NCI-H460 = tested on: NCI-H460
ACHN = tested on: ACHN
KM12 = tested on: KM12
HL-60 = tested on: HL-60

Measured: GI50

O=C1N2Cc3c4ccc5c3CN3C(=O)N6Cc7c(ccc(c7CN1C6(c1ccccc1)C23c1ccccc1)OCCOCCNCCOCCO4)OCCOCCNCCOCCO5 (centres undefined)
inactive: K562 69.7 µM | SF-295 65.5 µM | HOP-92 18 µM | 786-0 31.5 µM | OVCAR-5 > 100 µM | SK-MEL-28 > 100 µM | SK-MEL-5 55.2 µM | UO-31 38.8 µM | SN12C 19.5 µM | OVCAR-4 > 100 µM | OVCAR-3 15 µM | NCI-H460 30.5 µM | ACHN 22.5 µM | KM12 18.5 µM

NC(CCc1nc(-c2ccc(Cl)cc2)cs1)C(=O)O (centres undefined)
inactive: SF-295 > 100 µM | HOP-92 > 73.5 µM | 786-0 > 100 µM | OVCAR-5 > 100 µM | SK-MEL-28 > 100 µM | SK-MEL-5 > 100 µM | UO-31 > 100 µM | SN12C > 100 µM | OVCAR-4 > 100 µM | HL-60 > 100 µM | OVCAR-3 > 100 µM | NCI-H460 > 100 µM | ACHN > 100 µM | KM12 > 100 µM

CC1(C)C(=O)C(C)(C)C1=NNC(N)=S
inactive: K562 > 100 µM | SF-295 > 100 µM | HOP-92 > 100 µM | 786-0 > 100 µM | OVCAR-5 > 100 µM | SK-MEL-28 > 100 µM | SK-MEL-5 > 100 µM | UO-31 > 100 µM | SN12C > 100 µM | OVCAR-4 > 100 µM | HL-60 > 100 µM | OVCAR-3 > 100 µM | NCI-H460 > 100 µM | ACHN > 100 µM | KM12 > 100 µM

Cc1cccc(C)c1NC(=O)CCCC(=O)CC(=O)/C=C/c1ccccc1
inactive: K562 > 100 µM | HOP-92 > 100 µM | 786-0 > 100 µM | OVCAR-5 > 100 µM | SK-MEL-28 > 100 µM | SK-MEL-5 > 100 µM | UO-31 > 100 µM | SN12C > 100 µM | OVCAR-4 > 100 µM | OVCAR-3 > 100 µM | NCI-H460 > 100 µM | ACHN > 100 µM | KM12 > 100 µM

Cc1ccc(S(=O)(=O)C(C#N)c2nc3ccccc3nc2-n2ccnc2)cc1 (centres undefined)
inactive: K562 > 100 µM | SF-295 > 100 µM | HOP-92 > 100 µM | 786-0 > 100 µM | OVCAR-5 > 100 µM | SK-MEL-28 > 100 µM | SK-MEL-5 > 100 µM | UO-31 > 100 µM | SN12C > 100 µM | OVCAR-4 > 100 µM | HL-60 > 100 µM | OVCAR-3 > 100 µM | NCI-H460 > 100 µM | ACHN > 100 µM | KM12 > 100 µM

O=c1c2ccccc2nc2n1-c1ccccc1SC2
inactive: K562 36.7 µM | SF-295 > 100 µM | HOP-92 55.1 µM | 786-0 > 100 µM | OVCAR-5 > 100 µM | SK-MEL-28 71.3 µM | SK-MEL-5 30.1 µM | UO-31 48.2 µM | SN12C 51.2 µM | OVCAR-4 64.3 µM | OVCAR-3 64.9 µM | NCI-H460 40.2 µM | ACHN 54.7 µM | KM12 29.5 µM

CCOC(=O)C1C(NC(N)=O)N(Cc2ccccc2)C(=O)N1Cc1ccccc1 (centres undefined)
inactive: K562 > 100 µM | SF-295 > 100 µM | HOP-92 > 100 µM | 786-0 > 100 µM | OVCAR-5 29.3 µM | SK-MEL-28 > 100 µM | SK-MEL-5 > 100 µM | UO-31 > 100 µM | OVCAR-4 > 100 µM | HL-60 > 100 µM | OVCAR-3 > 100 µM | NCI-H460 > 100 µM | ACHN > 100 µM | KM12 > 100 µM

— ChEMBL document CHEMBL1201862, “PubChem BioAssay data set” (2004)
